This is an account of results in patent US20240101599A1, “PEPTIDE, CELL GROWTH PROMOTER, PROTEIN PRODUCTION PROMOTER, CULTURE MEDIUM, CELL GROWTH METHOD USING PEPTIDE, AND PROTEIN PRODUCTION METHOD USING PEPTIDE” (Maruhachi Muramatsu, Inc., priority 2020, published 2024).

Peptide text beside a SMILES is read from it.

One experiment relates to CHO-K1. Nature of the experiment: Relationship between number of days of cell growth of each peptide and cell number (absorbance). The class given is cell-based. The conditions noted are these: Day 0; 1.1 mM GPP, 2.2 mM DGP, 2.1 mM GEK, 2.0 mM AGK; MEMα without FBS. The method, then:
Peptides having the sequences of Gly-Pro-Pro (GPP), Asp-Gly-Pro (DGP), Gly-Glu-Lys (GEK), and Ala-Gly-Lys (AGK) were synthesized to prepare each peptide solution such that the concentration was a concentration at which the cell number increased the most within a range of 0 mM to 5 mM. In other words, Gly-Pro-Pro (GPP) was adjusted to 11 mM, Asp-Gly-Pro (DGP) was adjusted to 22 mM, Gly-Glu-Lys (GEK) was adjusted to 21 mM, and Ala-Gly-Lys (AGK) was adjusted to 20 mM, and an amount of 1/10 of the total culture medium volume was added to each well immediately before the cell culture test such that final concentrations were 1.1 mM, 2.2 mM, 2.1 mM, and 2.0 mM, respectively.
A cell suspension prepared such that CHO-K1 (RIKEN BioResource Research Center, cell number: RCB2330) was at 3×10^4 cells/mL was seeded in a 96-well plate at 100 μL/well and cultured in an incubator at 37° C. and 5% CO2 for 24 hours. As a culture medium, an MEMα culture medium (Gibco) containing 10% FBS was used.
After removing the culture medium from each well and washing with the MEMα culture medium (100 μL), 90 μL of a new MEMα culture medium was dispensed into each well, and each peptide solution (10 μL) was added (total 100 μL/well) to perform culture for 0 to 5 days. Every day, 10 μL/well of a viable cell count measurement reagent SF (Nacalai Tesque Inc.) was added, and a color reaction was carried out in an incubator at 37° C. and 5% CO2 for 2 hours to measure an absorbance at 450 nm with a plate reader. A reference wavelength was 630 nm. It was confirmed that the absorbance at 450 nm correlated with the cell number. A similar culture test was performed using a system containing neither peptide nor FBS as a comparative sample.
The above preparation, culture, and measurement were performed with n=3, and Table 12 and FIG. 12 show the absorbance and the standard deviation of each peptide solution for each day.
As for `C[C@H](N)C(=O)NCC(=O)N[C@@H](CCCCN)C(=O)O` [AGK, Ala-Gly-Lys] (H-Ala-Gly-Lys-OH; N-terminus and C-terminus assumed), the “OD450 (average value n = 3)” value came to 0.1757.

The experiment is the same for the next values; noted with them: Day 1; 1.1 mM GPP, 2.2 mM DGP, 2.1 mM GEK, 2.0 mM AGK; MEMα without FBS.
For the compound `C[C@H](N)C(=O)NCC(=O)N[C@@H](CCCCN)C(=O)O` [AGK, Ala-Gly-Lys] (H-Ala-Gly-Lys-OH; N-terminus and C-terminus assumed), the “OD450 (average value n = 3)” value was 0.4577.

The same experiment, now with this note: Day 2; 1.1 mM GPP, 2.2 mM DGP, 2.1 mM GEK, 2.0 mM AGK; MEMα without FBS.
In the case of `C[C@H](N)C(=O)NCC(=O)N[C@@H](CCCCN)C(=O)O` [AGK, Ala-Gly-Lys] (H-Ala-Gly-Lys-OH; N-terminus and C-terminus assumed), the “OD450 (average value n = 3)” value came out at 0.7440.

The same experiment, now with this note: Day 3; 1.1 mM GPP, 2.2 mM DGP, 2.1 mM GEK, 2.0 mM AGK; MEMα without FBS.
As for `C[C@H](N)C(=O)NCC(=O)N[C@@H](CCCCN)C(=O)O` [AGK, Ala-Gly-Lys] (H-Ala-Gly-Lys-OH; N-terminus and C-terminus assumed), the “OD450 (average value n = 3)” value was 0.7997.

Still in this experiment, the particulars now being: Day 4; 1.1 mM GPP, 2.2 mM DGP, 2.1 mM GEK, 2.0 mM AGK; MEMα without FBS.
Regarding `C[C@H](N)C(=O)NCC(=O)N[C@@H](CCCCN)C(=O)O` [AGK, Ala-Gly-Lys] (H-Ala-Gly-Lys-OH; N-terminus and C-terminus assumed), the “OD450 (average value n = 3)” value is given as 1.0263.

The experiment is the same for the next values; noted with them: Day 5; 1.1 mM GPP, 2.2 mM DGP, 2.1 mM GEK, 2.0 mM AGK; MEMα without FBS.
Take `C[C@H](N)C(=O)NCC(=O)N[C@@H](CCCCN)C(=O)O` [AGK, Ala-Gly-Lys] (H-Ala-Gly-Lys-OH; N-terminus and C-terminus assumed): the “OD450 (average value n = 3)” value is reported as 1.0620.

A further experiment has as its system CHO DP-12. In words: Cell growth test and protein production test on each peptide and combination of peptides on coating agent. The experiment is classed as cell-based. The conditions noted are these: average n=3; ELISA; one type of tripeptide: GPP 1.1 mM, DGP 2.2 mM, GEK 2.1 mM, AGK 2.0 mM; 5 days. How it is done: Peptides having the sequences of Gly-Pro-Pro (GPP), Asp-Gly-Pro (DGP), Gly-Glu-Lys (GEK), and Ala-Gly-Lys (AGK) were synthesized to prepare each peptide solution such that the concentration was a concentration at which the cell number increased the most within a range of 0 mM to 5 mM. In other words, Gly-Pro-Pro (GPP) was adjusted to 11 mM, Asp-Gly-Pro (DGP) was adjusted to 22 mM, Gly-Glu-Lys (GEK) was adjusted to 21 mM, and Ala-Gly-Lys (AGK) was adjusted to 20 mM, and an amount of 1/10 of the total culture medium volume was added to each well immediately before the cell culture test such that final concentrations were 1.1 mM, 2.2 mM, 2.1 mM, and 2.0 mM, respectively. Poly-L-lysine (Peptide Institute, Inc., Poly-L-Lysine Hydrochloride, code: 3075) was prepared to 0.1 mg/mL, and 200 μL was dispensed into each well of a 24-well plate, which was left to stand in an incubator at 37° C. for 2 hours. After removing the residual liquid with an aspirator, rinsing was performed with distilled water, irradiation was performed with a UV lamp in a clean bench without a lid, and drying was performed overnight to sterilize. A cell suspension prepared such that CHO DP-12 (ATCC, Cat. No. CRL-12445) was at 2×10^4 cells/well and 500 μL was seeded in a 24-well plate and cultured in an incubator at 37° C. and 5% CO2 for 24 hours. As a culture medium, a DMEM basal medium in which 200 nM of methotrexate and 2 μg/mL of insulin were blended in a DMEM culture medium (Gibco) containing 10% FBS was used.
After removing the culture medium from each well and washing with the DMEM basal medium (500 μL), 450 μL of a new DMEM basal medium was dispensed into each well, and each peptide solution (50 μL) was added (total 500 μL/well) to perform culture for 5 days.
As peptides, in addition to single GPP, DGP, GEK, and AGK, combinations of GPP+GEK, GPP+AGK, DGP+GEK, GEK+AGK, DGP+AGK, GPP+GEK+AGK, GPP+DGP+AGK, and GPP+DGP+GEK were used. A similar culture test was performed using a system containing neither peptide nor FBS as a comparative sample.
In order to measure the amount of protein produced, 100 μL of the culture medium supernatant was recovered in a 1.5 mL tube and diluted to quantitatively determine the amount of protein produced by an ELISA method.
In order to recover the cells, the culture medium in each well was recovered in a 1.5 mL tube to be rinsed with 200 μL of the DMEM basal medium, and the rinsed liquid was also recovered in the same 1.5 mL tube. Thereafter, 100 μL of trypsin was added and incubated for 3 minutes. After rinsing with 300 μL of the DMEM basal medium containing 10% FBS, the rinsed liquid was also recovered in the same 1.5 mL tube. After rinsing again with 200 μL of the DMEM basal medium containing 10% FBS, the rinsed liquid was also recovered in the same 1.5 mL tube.
A centrifugation operation was performed on the cells recovered in the 1.5 mL tube. The centrifugation conditions were 1,000 rpm, 10 minutes, and 4° C.
The supernatant was removed, and 300 μL of Cold PBS (phosphate buffered saline) was added to perform a centrifugation operation under the same conditions. The present operation was repeated twice.
Suspension was carried out with 100 μL of Binding Buffer, and 2 μL of propidium iodide (PI) was added and stirred in the tube to cause a reaction for 15 minutes at room temperature and with light shielding. Thereafter, the viable cell count and the cell viability were measured with a flow cytometer.
The above preparation, culture, and measurement were performed with n=3. Table 17, FIG. 17, Table 20, FIG. 20, Table 23, and FIG. 23 show the viable cell count in each peptide solution. Table 18, FIG. 18, Table 21, FIG. 21, Table 24, and FIG. 24 show the cell viability in each peptide solution. Table 19, FIG. 19, Table 22, FIG. 22, Table 25, and FIG. 25 show the amount of protein produced in each peptide solution.
Take `C[C@H](N)C(=O)NCC(=O)N[C@@H](CCCCN)C(=O)O` [AGK, Ala-Gly-Lys] (H-Ala-Gly-Lys-OH; N-terminus and C-terminus assumed): the “Amount of protein produced, Average” value amounted to 6.92 mg/L.

Still in this experiment, the particulars now being: average n=3; one type of tripeptide: GPP 1.1 mM, DGP 2.2 mM, GEK 2.1 mM, AGK 2.0 mM; 5 days.
As to `C[C@H](N)C(=O)NCC(=O)N[C@@H](CCCCN)C(=O)O` [AGK, Ala-Gly-Lys] (H-Ala-Gly-Lys-OH; N-terminus and C-terminus assumed), the “Viability, Average” value was determined as 88.5.

The experiment is the same for the next values; noted with them: one type of tripeptide: GPP 1.1 mM, DGP 2.2 mM, GEK 2.1 mM, AGK 2.0 mM; poly-L-lysine coating, 5 days, n=3.
Turning to `C[C@H](N)C(=O)NCC(=O)N[C@@H](CCCCN)C(=O)O` [AGK, Ala-Gly-Lys] (H-Ala-Gly-Lys-OH; N-terminus and C-terminus assumed), the “Cells cell count, Average” value was 19.0887 ×10^4.

Still in this experiment, the particulars now being: replicate 1; ELISA; one type of tripeptide: GPP 1.1 mM, DGP 2.2 mM, GEK 2.1 mM, AGK 2.0 mM; 5 days.
For the compound `C[C@H](N)C(=O)NCC(=O)N[C@@H](CCCCN)C(=O)O` [AGK, Ala-Gly-Lys] (H-Ala-Gly-Lys-OH; N-terminus and C-terminus assumed), the “Amount of protein produced, 1” value is on record as 7.36 mg/L.

The experiment is the same for the next values; noted with them: replicate 1; one type of tripeptide: GPP 1.1 mM, DGP 2.2 mM, GEK 2.1 mM, AGK 2.0 mM; 5 days.
On to `C[C@H](N)C(=O)NCC(=O)N[C@@H](CCCCN)C(=O)O` [AGK, Ala-Gly-Lys] (H-Ala-Gly-Lys-OH; N-terminus and C-terminus assumed), for which the “Viability, 1” value is given as 89.0.

Staying with this experiment, now noted: replicate 2; ELISA; one type of tripeptide: GPP 1.1 mM, DGP 2.2 mM, GEK 2.1 mM, AGK 2.0 mM; 5 days.
Turning to `C[C@H](N)C(=O)NCC(=O)N[C@@H](CCCCN)C(=O)O` [AGK, Ala-Gly-Lys] (H-Ala-Gly-Lys-OH; N-terminus and C-terminus assumed), the “Amount of protein produced, 2” value stood at 6.61 mg/L.

The experiment is the same for the next values; noted with them: replicate 2; one type of tripeptide: GPP 1.1 mM, DGP 2.2 mM, GEK 2.1 mM, AGK 2.0 mM; 5 days.
As to `C[C@H](N)C(=O)NCC(=O)N[C@@H](CCCCN)C(=O)O` [AGK, Ala-Gly-Lys] (H-Ala-Gly-Lys-OH; N-terminus and C-terminus assumed), the “Viability, 2” value was determined as 88.5.

The experiment is the same for the next values; noted with them: replicate 3; ELISA; one type of tripeptide: GPP 1.1 mM, DGP 2.2 mM, GEK 2.1 mM, AGK 2.0 mM; 5 days.
On to `C[C@H](N)C(=O)NCC(=O)N[C@@H](CCCCN)C(=O)O` [AGK, Ala-Gly-Lys] (H-Ala-Gly-Lys-OH; N-terminus and C-terminus assumed), for which the “Amount of protein produced, 3” value was 6.78 mg/L.

The same experiment, now with this note: replicate 3; one type of tripeptide: GPP 1.1 mM, DGP 2.2 mM, GEK 2.1 mM, AGK 2.0 mM; 5 days.
For `C[C@H](N)C(=O)NCC(=O)N[C@@H](CCCCN)C(=O)O` [AGK, Ala-Gly-Lys] (H-Ala-Gly-Lys-OH; N-terminus and C-terminus assumed), the “Viability, 3” value is listed as 88.1.
